Data published in EP0126483A2, “Deodorant” (Eduard Gerlach GmbH Chemische Fabrik, priority 1983, dated 1984).
Where two headings read alike, the source gives them in different places.

System: Achsel- und Fußschweiß
Settings: for desodorierende Wirksamkeit: result in words, concentration not given

Row | Molecule | desodorierende Wirksamkeit | also measured
1 | NC(N)=O [Harnstoff, reference compound] | mit bestem Erfolg | 
2 | Ethanolamide der Glutarsäure | Erfolgreich getestet | 
3 | Ethanolamide der Zitronensäure | Erfolgreich getestet | 
4 | CC(C)(CO)C(O)C(=O)NCCCO (centres unmarked) [Panthenol, N-Propanolamid der 1,3-Dihydroxy-2,2-Dimethylbuttersäure, reference compound] |  | Desodorierung des Achsel- und Fußschweißes (3 %ige Lösung in Alkohol/Wassergemisch): befriedigende Desodorierung; Desodorierung des Achsel- und Fußschweißes (5 % in Alkohol/Wassergemisch, also in strongly perspiring persons): optimal; Hautfreundlichkeit (in vivo): hervorragender
5 | CCOC(N)=O [Urethan] | Wirksam | 
6 | Ethanolamide der Bernsteinsäure | Erfolgreich getestet | 
7 | O=C1CC(=O)NC(=O)N1 [Malonylharnstoff(Barbitursäure), Malonylharnstoff] | Wirksam | 
8 | CCC(=O)NCCO [Ethanolamide der Propionsäure] | Die gleiche Eigenschaft | 
9 | Ethanolamide der Malonsäure | Erfolgreich getestet | 
10 | NC(=O)NCCO [ß-Hydroxiethylharnstoff] | Sehr wirksam | 
11 | Ethanolamide der Weinsäure | Erfolgreich getestet | 
12 | CC(=O)NCC(=O)O [N-Acetylglycin (Acetursäure), N-Acetylglycin] | gute Wirkstoffe | 
13 | Ethanolamide der Adipinsäure | Erfolgreich getestet | 
14 | CC(=O)NCCO [Essigsäuremonoethanolamid] | besonders kräftiger Wirkstoff | anhaltender Schutz vor der Bildung unangenehmer Zersetzungsprodukte des Achsel- und Fußschweißes (3 bis 5 % in a deodorant preparation, time after application): ≤ 24 Stunden
15 | NC(=O)NC(N)=O [Biuret] | Wirksam | 
16 | CC(O)C(=O)NCCO (centres unmarked) [Ethanolamide der Milchsäure] | Die gleiche Eigenschaft | 
17 | O=C(O)CNC(=O)c1ccccc1 [Hippursäure] | Wirksam | 
